This note sets out measurements from patent US20260231994A1, “TASTE-ENHANCING COMPOSITION, METHOD FOR PRODUCING SAME, FOOD PRODUCT, AND METHOD FOR ENHANCING TASTE OF FOOD PRODUCT” (HOUSE FOODS GROUP INC., priority 2023, published 2026).

Format in all cases: in vivo
Experiment [1] is described as follows: Experiment 1 sensory evaluation of “boosting of flavor” (cyclic dipeptides, coriander). Conditions: for “boosting of flavor” in words: added to reduced-sodium curry roux dispersion, compared with no addition, unheated coriander or common curry roux; for “boosting of flavor” Average: cyclic dipeptide aqueous solution (concentration as in heat-treated coriander) at final 0.2% (w/w) in reduced-sodium curry roux dispersion, score 1-5; for “boosting of flavor” Evaluation: cyclic dipeptide aqueous solution at final 0.2% (w/w) in reduced-sodium curry roux dispersion, class of average score. Here is the method:
Flour roux was prepared by putting 20 g of flour and 30 g of beef tallow in a pan, then heating with stirring at 120° C. To this flour roux were added 10 g of sodium chloride, 10 g of sugar, 10 g of cornstarch, 5 g of curry powder and 15 g of other seasoning ingredients (vegetable and fruit extracts, yeast extract and seafood extract), and after heat-treatment to 105° C., the mixture was cooled and solidified, to form a block of common curry roux.
The sodium chloride equivalent per 100 g of this curry roux was 10.6 g.
Reduced-sodium curry roux was prepared according to the same procedure, except that the amount of sodium chloride was reduced to 7 g from the amount in the common curry roux in (1).
The sodium chloride equivalent per 100 g of this reduced-sodium curry roux was 7.7 g.
Out of the cyclic dipeptides included in the heat-treated coriander prepared in 1.1. described above, which were confirmed to be increased in 1.2. above, an aqueous solution of the respective 14 cyclic dipeptides shown in the table described below was prepared. The concentration of the cyclic dipeptide in each aqueous solution was set to be equal to its concentration in the heat-treated coriander prepared in 1.1. described above, which was estimated from the ratio of the peak area of the cyclic dipeptide to the peak area of the internal standard (47 μg/g L-lysine-^13C6 monohydrochloride) confirmed in 1.2. described above.
Two dispersions of 44 g of the reduced-sodium curry roux in (2) dispersed in 300 g of hot water were prepared.
To one of them was added the heat-treated coriander or the powdered unheated coriander prepared in 1.1. described above, or the cyclic dipeptide aqueous solution (corresponding to the heat-treated coriander) prepared in (3) above, so that the final concentration was 0.2% (w/w), and a sensory evaluation was carried out.
Forty-four grams of the common curry roux in (1) was dispersed in 300 g of hot water.
The dispersion of reduced-sodium curry roux dispersed in hot water and the dispersion of common curry roux dispersed in hot water were used as comparative controls, and the strength of the flavor was evaluated by four evaluators on the basis of the following evaluation criteria from the viewpoint of “boosting of flavor.” The term “boosting of flavor” in this experiment is an effect concerted by the combination of sodium chloride and other foodstuffs in curry roux, and is an aspect of “saltiness.” Thus, the “flavor” in this experiment can be also expressed as “saltiness.”
The average of the evaluated scores was defined as “F” when it was 1.0 or lower, “C” when it was 1.1 or higher and 1.9 or lower, “B” when it was 2.0 or higher and 2.5 or lower, “A” when it was 2.6 or higher and 2.9 or lower, and “AA” when it was 3.0 or higher.

Experiment [2] is described as follows: Experiment 6 sensory evaluation of cyclic dipeptides, “boosting of last flavor (aftertaste)”. In short, it runs like this:
(§1)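 Reduced-sodium curry roux (44 g in 300 g hot water) was spiked with cyclic dipeptide solutions matching heat-treated coriander or paprika levels, at 0.5% or 1.0% (w/w) final. Three evaluators scored each sample against unspiked reduced-sodium and common roux. Mean scores were graded F to AA.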

A short description of experiment [3]: Experiment 6 sensory evaluation of cyclic dipeptides, “top sharp saltiness”. In short, it runs like this: as §1
The nature of experiment [4]: Experiment 6 sensory evaluation of cyclic dipeptides, “middle fullness (enhanced thickness)”. In short, it runs like this:
as §1

Where [5] appears, read: Additive amount paprika 0.5%, reduced-sodium curry roux.
The mark [6] stands for this setting: heat-treated paprika equivalent aqueous solution of cyclic dipeptide, final 1.0% (w/w) in reduced-sodium curry roux dispersion.
The mark [7] stands for this setting: heat-treated paprika equivalent aqueous solution of cyclic dipeptide, final 1.0% (w/w) in reduced-sodium curry roux dispersion, 3 evaluators.
The mark [8] stands for this setting: Additive amount paprika 0.5% (heat-treated paprika equivalent aqueous solution, final 0.5% (w/w)), reduced-sodium curry roux.

Turning to cyclic (Pro-Val) [Coriander ID 29], the ““boosting of flavor” in words” value in experiment [1] is recorded as “comparable flavor to that of the dispersion of common curry roux”. Further, the ““boosting of flavor” Average” value in experiment [1] is reported as 3.0 points. The ““boosting of flavor” Evaluation” value in experiment [1] was “AA (“AA” when it was 3.0 or higher)”. Also, the “Bosting of last flavor Average” value is 2.2 points in experiment [2] (setting [5]) and 2.3 points in experiment [2] (setting [7]). Further, the “Bosting of last flavor Evaluation” value is “B (“B” when it was 2.0 or higher and 2.5 or lower)” in experiment [2] (setting [5]); “B (“B” when it was 2.0 or higher and 2.5 or lower)” in experiment [2] (setting [6]). Moreover, the “Top sharp saltiness Average” value in experiment [3] (setting [8]) amounted to 2.5 points; in experiment [3] (setting [7]) it was 2.2 points. Also, the “Top sharp saltiness Evaluation” value was “B (“B” when it was 2.0 or higher and 2.5 or lower)” in experiment [3] (setting [5]); “B (“B” when it was 2.0 or higher and 2.5 or lower)” in experiment [3] (setting [6]). In addition, the “Middle fullness Average” value in experiment [4] (setting [5]) and in experiment [4] (setting [7]) was 2.3 points each time. The “Middle fullness Evaluation” value in experiment [4] (setting [5]) was “B (“B” when it was 2.0 or higher and 2.5 or lower)”; in experiment [4] (setting [6]), “B (“B” when it was 2.0 or higher and 2.5 or lower)”.
For cyclic (Thr-Pro) [Coriander ID 14], in experiment [1], the ““boosting of flavor” in words” value is “comparable flavor to that of the dispersion of common curry roux”. In addition, the ““boosting of flavor” Average” value in experiment [1] was 3.3 points. For the same substance, the ““boosting of flavor” Evaluation” value in experiment [1] was “AA (“AA” when it was 3.0 or higher)”. In addition, the “Bosting of last flavor Average” value amounted to 2.2 points in experiment [2] (setting [5]) and 2.5 points in experiment [2] (setting [7]). The “Bosting of last flavor Evaluation” value in experiment [2] (setting [5]) was “B (“B” when it was 2.0 or higher and 2.5 or lower)”; in experiment [2] (setting [6]) it was “B (“B” when it was 2.0 or higher and 2.5 or lower)”. Further, the “Top sharp saltiness Average” value in experiment [3] (setting [8]) is on record as 2.2 points; in experiment [3] (setting [7]), 2.0 points. The “Top sharp saltiness Evaluation” value in experiment [3] (setting [5]) was “B (“B” when it was 2.0 or higher and 2.5 or lower)”; in experiment [3] (setting [6]), “B (“B” when it was 2.0 or higher and 2.5 or lower)”. Moreover, the “Middle fullness Average” value in experiment [4] (setting [5]) is on record as 2.0 points; in experiment [4] (setting [7]), 2.5 points. In addition, the “Middle fullness Evaluation” value is “B (“B” when it was 2.0 or higher and 2.5 or lower)” in experiment [4] (setting [5]); “B (“B” when it was 2.0 or higher and 2.5 or lower)” in experiment [4] (setting [6]).
